Assay results published in patent US5336759A, “Biologically active peptide derived from frog (frog CNP)” (priority 1990, dated 1994).
Read-outs that look alike come from different tables or passages of the source. Bridge positions count the residues as written; N and C are the ends. Ends that are not written are not given here. Peptide text beside a SMILES is read from it.

What was measured:
[1] = test system: chicken rectum
Method: Relaxant activity in chicken rectum was measured in accordance with the method of […] and Currie ([…]. and Matsuo, H., Biochem. Biophys. Res. Commun., 118, 131-139, 1984; Currie, […]., Cole, […]. and Needleman, P. Science, 221, 71-73, 1983). The values are averages of six repeats. […] Although fCNP lacked the tail sequence at the C-terminal which had been considered to be important for analog peptides in displaying biological activities such as diuretic action (Watanabe, T. X., Noda, Y., Chino […]. and Imai, M. Eur. J. […] Relative activity is defined as the activity of equimolar amount of peptides when the activity of α-hANP is 100.

[2] = test system: anesthetized rats; assay: Diuretic and natriuretic action in anesthetized rats; type: in vivo, rat; details: for excretion Cl- / excretion K+ / excretion Na+ / excretion urine: urine collected 15 min before and after injection, Means±S.E.M., three rats
Method: (§1) Diuretic action of fCNP was measured in accordance with the method described in Kangawa et al and Sudoh et al (Kangawa, K. et al., Biochem. Biophys. Res. Commun., 118, 131-139, 1984; Sudoh, T., Kangawa, K., Minamino, N. and Matsuo, H. Nature, 332, 78-81 , 1988). Male SD rats (weight 300-400 g) were anesthetized by intraperitoneally receiving 50 mg/kg pentobarbital, and a tracheal cannula (PE-240, Cray Adams) was provided to secure an airway. A cannula for measuring the blood pressure (PE-50) was inserted into one of the femoral arteries, and Ringer solution was injected through a cannula (PE-10) inserted into the femoral venous, at a constant rate of 1.8 ml/hr. Urine was collected into a test tube through a bladder cannula of silastic tube (inside diameter 0.02 inch, outside diameter 0.037 inch, Dow Corning). The collection of urine was carried out for 15 min before the administration of the peptides, at 5 min intervals after the administration till 15 min, and then at appropriate time intervals. The effect of the peptides was measured by comparing the amount of the urine samples and the concentration of the electrolyte in the urine samples, as well as by the change of the blood pressure.
In the above assay, a predetermined amount of fCNP was dissolved in 0.1N acetic acid, and neutralized with one tenth volume of 1.3M Tris solution. Then, the solution was diluted with 50 μl of a sterile physiological water, and administered through the cervical vein.
In Table 3, diuretic and natriuretic responses are shown in terms of the amount of the urine, the percentages in the decreases of the excretion of Na^+, K^+ and Cl^- (Means±S.E.M.), in which urine samples were collected separately over 15 min before and after the intravenous injection of the peptides to anesthetized rats. Three rats were used for each peptide.

[3] = test system: anesthetized rats; assay: Vasodepressor action (blood pressure) in anesthetized rats; type: in vivo, rat; parameters: decrease of blood pressure at the contract phase of heart: unit not given here
Method: as §1, with “Kangawa” left out, “([…].” for “(Kangawa, K.”, “[…].,” for “T., Kangawa, K.,”, “pressure. In the above assay, a predetermined amount of fCNP was dissolved in 0.1N acetic acid, and neutralized with one tenth volume of 1.3M Tris solution. […]” for “pressure.”

[4] = relaxant activity of equimolar amount of peptide, activity of α-hANP = 100, averages of six repeats

Q: Which relative activity [1, 4] does the source give for “α-hANP: A-type (atrial) natriuretic peptide used as reference, activity set to 100 (SLRRSSCFGGRMDRIGAQSGLGCNSFRY; ends and bridges not checked; cysteine pairing not given here; UniProt P01160 124-151, looked up) [reference compound]” here?
A: The relative activity was 100.

Q: And the “excretion Cl-” value ([2]; 3.0 μg/kg intravenous)?
A: The value was 445 ± 67%.

Q: What about the “excretion K+” value ([2]; 3.0 μg/kg intravenous) of the same compound?
A: Its value is 291 ± 19%.

Q: And the “excretion Na+” value ([2]; 3.0 μg/kg intravenous)?
A: The value was 572 ± 84%.

Q: What about the excretion urine ([2]; 3.0 μg/kg intravenous) of the same compound?
A: The excretion urine was 461 ± 51%.

Q: How did the relative activity [1, 4] turn out when “pBNP-26: diuretic peptide; B-type (brain) natriuretic peptide (DSGCFGRRLDRIGSLSGLGCNVLRRY; ends and bridges not checked; cysteine pairing not given here; UniProt P07634 106-131, looked up) [reference compound]” was run?
A: The relative activity was 270.

Q: Which results are given for CC[C@H](C)[C@@H]1NC(=O)[C@H](CCCNC(=N)N)NC(=O)[C@H](CC(=O)O)NC(=O)[C@H](CC(C)C)NC(=O)[C@H](CCCCN)NC(=O)[C@H](C(C)C)NC(=O)CNC(=O)[C@H](Cc2ccccc2)NC(=O)[C@@H](NC(=O)CNC(=O)[C@H](CCCNC(=N)N)NC(=O)[C@H](CO)NC(=O)[C@H](Cc2ccc(O)cc2)NC(=O)CN)CSSC[C@@H](C(=O)O)NC(=O)CNC(=O)[C@H](CC(C)C)NC(=O)CNC(=O)[C@H](CO)NC(=O)[C@H](Cc2ccccc2)NC(=O)[C@H](C)NC(=O)CNC1=O [fCNP] (H-GYSRGCFGVKLDRIGAFSGLGC-OH; disulfide 6-22)?
A: relative activity [1]: 321; relaxant activity in chicken rectum (in words) [1]: strong relaxant activity which was comparable to pCNP; relaxant activity in chicken rectum (in words) ([1]; listed as synthetic fCNP): positive relaxant activity; relaxant activity, times higher than fANP-21 ([1]; relative to fANP-21): ~7 times; relaxant activity, times higher than α-hANP ([1]; relative to α-hANP): about 3 times; excretion Cl- ([2]; 30 μg/kg intravenous): 193 ± 50%; excretion K+ ([2]; 30 μg/kg intravenous): 163 ± 54%; excretion Na+ ([2]; 30 μg/kg intravenous): 184 ± 26%; excretion urine ([2]; 30 μg/kg intravenous): 192 ± 51%; excretion Cl- ([2]; 100 μg/kg intravenous): 251 ± 43%; excretion K+ ([2]; 100 μg/kg intravenous): 217 ± 58%; excretion Na+ ([2]; 100 μg/kg intravenous): 344 ± 36%; excretion urine ([2]; 100 μg/kg intravenous): 315 ± 24%; excretion Cl- ([2]; 300 μg/kg intravenous): 369 ± 6%; excretion K+ ([2]; 300 μg/kg intravenous): 210 ± 33%; excretion Na+ ([2]; 300 μg/kg intravenous): 428 ± 29%; excretion urine ([2]; 300 μg/kg intravenous): 410 ± 27%; diuretic and natriuretic actions compared to that of α-hANP ([2]; ratio to α-hANP, anesthetized rats): about 1/100; decrease of blood pressure at the contract phase of heart ([3]; 10 nmol of fCNP, over a period of 30 min, typical experiment): 25-30; vasodepressor action (in words) ([3]; anesthetized rats): weak vasodepressor action
